Common to all, as to format: in vivo
One experiment has as its system Poa annua (POAAN). The experiment can be described thus: A. Herbicidal pre-emergence efficacy, POAAN. In a few lines:
(§1)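 Pre-emergence soil-surface spray in sandy loam pots, WP/EC in water plus 0.5% additive, 600 L/ha. Visual % damage rating after about 3 weeks in greenhouse vs. untreated; 0% = control-like, 100% = dead plants. Rates up to 1280 g/ha.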

Experiment [1] deals with Stellaria media (STEME). The experiment can be described thus: A. Herbicidal pre-emergence efficacy, STEME. The method, boiled down: as §1
For experiment [2], the system named is Amaranthus retroflexus (AMARE). Put plainly: A. Herbicidal pre-emergence efficacy, AMARE. The method, boiled down:
as §1

The next experiment deals with Setaria viridis (SETVI). The experiment can be described thus: B. Herbicidal post-emergence efficacy, SETVI. In a few lines: (§2)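 Post-emergence foliar spray, at application rates of 1280 g/ha or less, on one-leaf-stage plants 2–3 weeks post-sowing, using aqueous WP or EC suspensions with 0.5% additive at 600 L/ha. Visual percent efficacy relative to untreated plants scored roughly 3 weeks later in the greenhouse.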

Experiment [3] has as its system Stellaria media (STEME). The experiment can be described thus: B. Herbicidal post-emergence efficacy, STEME. In a few lines:
as §2

Experiment [4] deals with Abutilon theophrasti (ABUTH). The experiment can be described thus: C. Herbicidal pre-emergence efficacy, ABUTH. As to conditions: scored after about 3 weeks. The method, boiled down: (§3)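 Pre-emergence test: formulated compounds sprayed as aqueous suspension or emulsion with 0.5% additive at 600 l/ha onto soil covering sown seeds, at rates corresponding to 320 g/ha or less. After about 3 weeks in greenhouse, efficacy scored visually as percent versus untreated controls (100% = plants dead).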

The subject of experiment [5] is Amaranthus retroflexus (AMARE). Put plainly: C. Herbicidal pre-emergence efficacy, AMARE. As to conditions: scored after about 3 weeks. In a few lines: as §3
Experiment [6] concerns Echinochloa crus-galli (ECHCG). The experiment can be described thus: E. Herbicidal post-emergence efficacy, ECHCG. The method, boiled down: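 Greenhouse weeds were treated post-emergence at the one-leaf stage, 2-3 weeks after sowing in sandy loam, with WP or EC formulations sprayed as aqueous suspension/emulsion plus 0.5% additive at 600 l/ha, at 320 g/ha or less. Efficacy was rated visually after about 3 weeks versus untreated controls (100% = dead, 0% = like control).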

From patent publication US20240174618A1, “SUBSTITUTED (2-HETEROARYLOXYPHENYL)SULFONATES, SALTS THEREOF AND THEIR USE AS HERBICIDAL AGENTS” (Bayer Aktiengesellschaft, priority 2021, published 2024) come the findings set out here.

`O=S(=O)(CCCC(F)(F)F)Oc1c(Cl)cccc1Oc1ncc(Br)cn1` [Example I-34]: the “Pre-emergence efficacy against POAAN” value in the experiment on Poa annua (POAAN) (dosage 320 g/ha) and with Poa annua (POAAN) (dosage 1280 g/ha) was 90% in each case. Moreover, the “Pre-emergence efficacy against STEME” value in the experiment on Stellaria media (STEME) [1] (dosage 320 g/ha) and in the experiment on Stellaria media (STEME) [1] (dosage 1280 g/ha) was 90% in each case. The “Pre-emergence efficacy against AMARE in %” value in experiment [2] (80 g/ha) came out at 90%; in experiment [2] (320 g/ha), 90%; in experiment [2] (1280 g/ha) it was 100%. In the experiment with Setaria viridis (SETVI) (1280 g/ha), the “Post-emergence efficacy against SETVI” value is 90%. Besides, the “Post-emergence efficacy against STEME” value with Stellaria media (STEME) [3] (80 g/ha), in the experiment on Stellaria media (STEME) [3] (320 g/ha) and in the experiment on Stellaria media (STEME) [3] (1280 g/ha) was 100% throughout. Besides, the “Pre-emergence efficacy against ABUTH” value is listed as 80% in experiment [4] (80 g/ha) and 90% in experiment [4] (320 g/ha). Further, the “Pre-emergence efficacy against AMARE” value in experiment [5] (80 g/ha) and in experiment [5] (320 g/ha) was 100% throughout. The “Post-emergence efficacy against ECHCG in %” value in experiment [6] (application rate 320 g/ha) was found to be 90%.
On to `O=S(=O)(CCCCl)Oc1ccccc1Oc1ncc(Cl)cn1` [Example I-2], for which the “Pre-emergence efficacy against POAAN” value in the experiment with Poa annua (POAAN) (dosage 80 g/ha), with Poa annua (POAAN) (dosage 320 g/ha) and with Poa annua (POAAN) (dosage 1280 g/ha) was 100% in each case. Besides, the “Pre-emergence efficacy against STEME” value with Stellaria media (STEME) [1] (dosage 80 g/ha), in the experiment with Stellaria media (STEME) [1] (dosage 320 g/ha) and in the experiment with Stellaria media (STEME) [1] (dosage 1280 g/ha) was 100% in each case. Also, the “Pre-emergence efficacy against AMARE in %” value in experiment [2] (80 g/ha), in experiment [2] (320 g/ha) and in experiment [2] (1280 g/ha) was 100% each time. In addition, the “Post-emergence efficacy against SETVI” value with Setaria viridis (SETVI) (320 g/ha) and in the experiment with Setaria viridis (SETVI) (1280 g/ha) was 100% in each case. In addition, the “Post-emergence efficacy against STEME” value in the experiment on Stellaria media (STEME) [3] (80 g/ha) is reported as 90%; in the experiment on Stellaria media (STEME) [3] (320 g/ha) it was 100%; in the experiment on Stellaria media (STEME) [3] (1280 g/ha), 100%. Moreover, the “Pre-emergence efficacy against ABUTH” value in experiment [4] (80 g/ha) and in experiment [4] (320 g/ha) was 100% in each case. For the same compound, the “Pre-emergence efficacy against AMARE” value in experiment [5] (80 g/ha) and in experiment [5] (320 g/ha) was 100% throughout. Also, in experiment [6] (application rate 320 g/ha), the “Post-emergence efficacy against ECHCG in %” value is on record as 100%.
Turning to `O=S(=O)(CCCC(F)F)Oc1c(F)cccc1Oc1ncc(Cl)cn1` [Example I-56], the figures for the “Pre-emergence efficacy against POAAN” value with Poa annua (POAAN) (dosage 80 g/ha), in the experiment with Poa annua (POAAN) (dosage 320 g/ha) and with Poa annua (POAAN) (dosage 1280 g/ha) were 90%, 100% and 100%, respectively. Moreover, the “Pre-emergence efficacy against STEME” value in the experiment on Stellaria media (STEME) [1] (dosage 80 g/ha), in the experiment on Stellaria media (STEME) [1] (dosage 320 g/ha) and in the experiment on Stellaria media (STEME) [1] (dosage 1280 g/ha) was 100% in each case. For the same compound, the “Pre-emergence efficacy against AMARE in %” value in experiment [2] (80 g/ha), in experiment [2] (320 g/ha) and in experiment [2] (1280 g/ha) was 100% each time. Further, the “Post-emergence efficacy against SETVI” value with Setaria viridis (SETVI) (320 g/ha) and with Setaria viridis (SETVI) (1280 g/ha) was 90% each time. The “Post-emergence efficacy against STEME” value in the experiment with Stellaria media (STEME) [3] (80 g/ha), with Stellaria media (STEME) [3] (320 g/ha) and with Stellaria media (STEME) [3] (1280 g/ha) was 90% each time. Moreover, the “Pre-emergence efficacy against ABUTH” value in experiment [4] (80 g/ha) and in experiment [4] (320 g/ha) was 100% throughout. Besides, the “Pre-emergence efficacy against AMARE” value in experiment [5] (80 g/ha) and in experiment [5] (320 g/ha) was 100% each time. Besides, the “Post-emergence efficacy against ECHCG in %” value came to 80% in experiment [6] (application rate 80 g/ha) and 100% in experiment [6] (application rate 320 g/ha).
For `O=S(=O)(CCC(F)(F)F)Oc1c(F)cccc1Oc1ncc(Cl)cn1` [Example I-48], the “Pre-emergence efficacy against POAAN” value in the experiment on Poa annua (POAAN) (dosage 80 g/ha) is listed as 90%; in the experiment with Poa annua (POAAN) (dosage 320 g/ha) it was 100%; in the experiment on Poa annua (POAAN) (dosage 1280 g/ha) it was 100%. For the same compound, the “Pre-emergence efficacy against STEME” value is 90% in the experiment with Stellaria media (STEME) [1] (dosage 80 g/ha), 100% in the experiment with Stellaria media (STEME) [1] (dosage 320 g/ha) and 100% with Stellaria media (STEME) [1] (dosage 1280 g/ha). Moreover, the “Pre-emergence efficacy against AMARE in %” value is reported as 90% in experiment [2] (80 g/ha), 90% in experiment [2] (320 g/ha) and 100% in experiment [2] (1280 g/ha). In addition, the “Post-emergence efficacy against SETVI” value in the experiment with Setaria viridis (SETVI) (320 g/ha) and with Setaria viridis (SETVI) (1280 g/ha) was 90% throughout. Moreover, the “Post-emergence efficacy against STEME” value with Stellaria media (STEME) [3] (80 g/ha), with Stellaria media (STEME) [3] (320 g/ha) and in the experiment on Stellaria media (STEME) [3] (1280 g/ha) was 90% each time. Besides, the “Pre-emergence efficacy against ABUTH” value in experiment [4] (80 g/ha) and in experiment [4] (320 g/ha) was 100% in each case. Also, the “Pre-emergence efficacy against AMARE” value in experiment [5] (80 g/ha) and in experiment [5] (320 g/ha) was 100% each time. Also, the “Post-emergence efficacy against ECHCG in %” value in experiment [6] (application rate 80 g/ha) and in experiment [6] (application rate 320 g/ha) was 100% in each case.
In the case of `O=S(=O)(CCCC(F)(F)F)Oc1c(Cl)cccc1Oc1ncc(Cl)cn1` [Example I-39], the “Pre-emergence efficacy against POAAN” value in the experiment with Poa annua (POAAN) (dosage 320 g/ha) and with Poa annua (POAAN) (dosage 1280 g/ha) was 100% throughout. Moreover, the “Pre-emergence efficacy against STEME” value in the experiment with Stellaria media (STEME) [1] (dosage 320 g/ha) and with Stellaria media (STEME) [1] (dosage 1280 g/ha) was 100% throughout. The “Pre-emergence efficacy against AMARE in %” value in experiment [2] (80 g/ha), in experiment [2] (320 g/ha) and in experiment [2] (1280 g/ha) was 100% throughout. For the same compound, the “Post-emergence efficacy against SETVI” value in the experiment on Setaria viridis (SETVI) (320 g/ha) and in the experiment on Setaria viridis (SETVI) (1280 g/ha) was 90% each time. The “Post-emergence efficacy against STEME” value with Stellaria media (STEME) [3] (80 g/ha), in the experiment with Stellaria media (STEME) [3] (320 g/ha) and with Stellaria media (STEME) [3] (1280 g/ha) was 90% in each case. For the same compound, the “Pre-emergence efficacy against ABUTH” value in experiment [4] (80 g/ha) and in experiment [4] (320 g/ha) was 100% throughout. Further, the “Pre-emergence efficacy against AMARE” value in experiment [5] (80 g/ha) and in experiment [5] (320 g/ha) was 100% in each case. The “Post-emergence efficacy against ECHCG in %” value in experiment [6] (application rate 80 g/ha) was found to be 90%; in experiment [6] (application rate 320 g/ha) it was 100%.
